The values below come from PubChem BioAssay (NCI).

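Method: 48-hour compound exposure of cells in 96-well plates, five concentrations, linear interpolation of endpoints. TGI marks complete inhibition of growth.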

What all share (assay): NCI anticancer screen, dose series, 48 h
For test [1], the system named is SNB-78 CNS.
The test system of test [2] is KM20L2 colon.
Test [3] relates to DMS 273 small cell lung.
The test system of test [4] is HOP-18 NSCLC.
Test [5] deals with LXFL 529 NSCLC.

As for `COc1cc2c(cc1OC)-c1c3c(cc4c1[C@@H](C2)N(C)CC4)OCO3`, the TGI turned out to be 43.9 µM in test [1], 31.9 µM in test [2], 14.5 µM in test [3] and 52 µM in test [4].

For `CC1(Cl)CC2C(CC1Sc1nnnn1-c1ccccc1)C2(C)C` (centres undefined), the TGI in test [1], in test [2], in test [5] and in test [3] was more than 100 µM each time.

As for `NCCCCNCCCNC(=O)c1nc(-c2csc(CCN)n2)sc1Cl`, the TGI is more than 100 µM in test [1], more than 100 µM in test [2], 45.6 µM in test [5] and more than 100 µM in test [3].

For `CC(=O)Oc1ccc(C2COc3cc(OC(C)=O)c(OC(C)=O)cc3C2)cc1` (centres undefined), the TGI in test [1] was 80.2 µM; in test [2], 75.5 µM; in test [3], 61.6 µM; in test [4], 46.8 µM.

In the case of `C#CCn1c(=O)c(C#N)c(O)c2cc3ccccc3nc21`, the TGI in test [1], in test [3] and in test [4] was more than 100 µM each time.
